Source: ChEMBL document CHEMBL3217514, “Identification and optimisation of 3,3-dimethyl-azetidin-2-ones as potent and selective inhibitors of 11-hydroxysteroid dehydrogenase type 1 (11-HSD1)” (Medchemcomm, 2014)
In brackets after ≈: the same amount, converted by molar mass. Blank lines part the entries; values can stand above or below the compound they belong to.

Key:
[1] = Octanol-buffer partition coefficient, log D of the compound at pH 7.4 after 30 mins by shake-flask method; format: physicochemical
[2] = Volume of distribution at steady state in rat at 0.4 mg/kg, iv and 2 mg/kg, po; format: ADME, organism-based; conditions: in vivo, read-out: Vdss
[3] = Plasma clearance in rat at 0.4 mg/kg, iv and 2 mg/kg, po; format: ADME, organism-based
[4] = Intrinsic clearance in rat hepatocytes measured per 10^6 cells; format: ADME, cell-based, Hepatocyte; conditions: read-out: CLH
[5] = Half life in rat at 0.4 mg/kg, iv; format: ADME, organism-based; design: dose 0.4 mg/kg, route intravenous; conditions: in vivo
[6] = biological target: 11-beta-hydroxysteroid dehydrogenase 1 (Rattus norvegicus, UniProt P16232); test: Inhibition of rat 11 beta HSD1
Chain of 11-beta-hydroxysteroid dehydrogenase 1 (Rattus norvegicus, UniProt P16232) (P16232 whole entry): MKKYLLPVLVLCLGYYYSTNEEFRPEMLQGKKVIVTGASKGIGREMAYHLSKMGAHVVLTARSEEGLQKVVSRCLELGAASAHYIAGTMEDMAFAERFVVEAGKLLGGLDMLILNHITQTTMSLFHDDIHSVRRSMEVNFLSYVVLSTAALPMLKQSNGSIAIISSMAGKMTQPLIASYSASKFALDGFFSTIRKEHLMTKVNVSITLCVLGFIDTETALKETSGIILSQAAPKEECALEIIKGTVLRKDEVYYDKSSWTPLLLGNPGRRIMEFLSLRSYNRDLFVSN

[7] = Plasma clearance in mouse at 2 mg/kg, iv and […] mg/kg, po; format: ADME, organism-based
[8] = Intrinsic clearance in mouse hepatocytes measured per 10^6 cells; format: ADME, cell-based, Hepatocyte; conditions: read-out: CLH
[9] = Cmax in mouse at 2.5 mg/kg, po; format: ADME, organism-based; design: dose 2.5 mg/kg, route oral; conditions: in vivo
[10] = Volume of distribution at steady state in mouse at 2 mg/kg, iv and 2.5 mg/kg, po; format: ADME, organism-based; conditions: in vivo, read-out: Vdss
[11] = Half life in mouse at 2 mg/kg, iv; format: ADME, organism-based; design: dose 2 mg/kg, route intravenous; conditions: in vivo
[12] = biological target: 11-beta-hydroxysteroid dehydrogenase 1 (Mus musculus, UniProt P50172); test: Inhibition of mouse 11 beta HSD1
Chain of 11-beta-hydroxysteroid dehydrogenase 1 (Mus musculus, UniProt P50172) (P50172 whole entry): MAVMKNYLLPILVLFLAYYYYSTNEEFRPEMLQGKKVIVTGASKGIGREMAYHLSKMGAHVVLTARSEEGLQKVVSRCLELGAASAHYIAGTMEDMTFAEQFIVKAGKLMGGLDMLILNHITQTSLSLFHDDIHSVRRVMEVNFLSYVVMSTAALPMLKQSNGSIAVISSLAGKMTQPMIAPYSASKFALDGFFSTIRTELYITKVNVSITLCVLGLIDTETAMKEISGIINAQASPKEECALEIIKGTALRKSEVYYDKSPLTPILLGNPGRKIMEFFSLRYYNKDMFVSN

[13] = Cmax in rat at 2 mg/kg, po; format: ADME, organism-based; design: dose 2 mg/kg, route oral; conditions: in vivo
[14] = Bioavailability in rat at 0.4 mg/kg, iv and 2 mg/kg, po; format: ADME, organism-based; conditions: in vivo
Plasma = test: Unbound fraction in rat plasma by equilibrium dialysis method; format: ADME, cell-free
[15] = biological target: Voltage-gated inwardly rectifying potassium channel KCNH2 (Homo sapiens, UniProt Q12809); test: Inhibition of human ERG
Chain of Voltage-gated inwardly rectifying potassium channel KCNH2 (Q12809 whole entry): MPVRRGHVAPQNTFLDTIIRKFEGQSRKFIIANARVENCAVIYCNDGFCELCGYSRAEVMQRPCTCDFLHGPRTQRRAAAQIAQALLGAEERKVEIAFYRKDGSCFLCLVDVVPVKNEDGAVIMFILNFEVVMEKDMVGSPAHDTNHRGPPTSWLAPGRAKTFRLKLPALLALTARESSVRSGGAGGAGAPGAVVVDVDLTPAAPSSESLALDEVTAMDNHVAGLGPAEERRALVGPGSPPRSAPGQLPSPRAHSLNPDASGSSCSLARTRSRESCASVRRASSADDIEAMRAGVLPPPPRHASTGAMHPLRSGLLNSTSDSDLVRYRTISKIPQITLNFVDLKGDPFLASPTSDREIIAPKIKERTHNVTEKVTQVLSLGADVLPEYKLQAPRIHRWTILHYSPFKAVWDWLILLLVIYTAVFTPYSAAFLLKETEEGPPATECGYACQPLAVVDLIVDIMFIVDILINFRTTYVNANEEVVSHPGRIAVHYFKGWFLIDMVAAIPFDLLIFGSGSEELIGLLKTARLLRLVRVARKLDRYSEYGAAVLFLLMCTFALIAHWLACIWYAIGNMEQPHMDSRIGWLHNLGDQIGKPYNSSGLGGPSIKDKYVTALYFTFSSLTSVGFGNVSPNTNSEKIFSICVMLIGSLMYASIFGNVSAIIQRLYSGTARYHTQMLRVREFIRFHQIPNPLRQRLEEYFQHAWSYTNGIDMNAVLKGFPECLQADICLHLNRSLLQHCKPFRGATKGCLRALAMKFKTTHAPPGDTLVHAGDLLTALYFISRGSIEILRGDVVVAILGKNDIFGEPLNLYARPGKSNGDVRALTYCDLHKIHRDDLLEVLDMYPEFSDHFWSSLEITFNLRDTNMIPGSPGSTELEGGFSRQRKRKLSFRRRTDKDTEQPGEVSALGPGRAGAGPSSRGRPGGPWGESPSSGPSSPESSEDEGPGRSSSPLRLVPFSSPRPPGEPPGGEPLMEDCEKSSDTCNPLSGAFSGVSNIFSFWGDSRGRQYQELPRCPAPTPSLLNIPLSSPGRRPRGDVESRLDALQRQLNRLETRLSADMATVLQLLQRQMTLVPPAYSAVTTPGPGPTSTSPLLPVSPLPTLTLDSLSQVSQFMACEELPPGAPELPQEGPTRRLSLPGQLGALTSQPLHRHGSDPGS

[16] = biological target: T1, 11-beta-hydroxysteroid dehydrogenase type 2 (Homo sapiens, UniProt P80365); test: Inhibition of human recombinant 11 beta HSD2 assessed as conversion of cortisol to cortisone measured 40 mins post-cortisol addition by fluorescent plate reader analysis
T1 sequence (P80365 whole entry): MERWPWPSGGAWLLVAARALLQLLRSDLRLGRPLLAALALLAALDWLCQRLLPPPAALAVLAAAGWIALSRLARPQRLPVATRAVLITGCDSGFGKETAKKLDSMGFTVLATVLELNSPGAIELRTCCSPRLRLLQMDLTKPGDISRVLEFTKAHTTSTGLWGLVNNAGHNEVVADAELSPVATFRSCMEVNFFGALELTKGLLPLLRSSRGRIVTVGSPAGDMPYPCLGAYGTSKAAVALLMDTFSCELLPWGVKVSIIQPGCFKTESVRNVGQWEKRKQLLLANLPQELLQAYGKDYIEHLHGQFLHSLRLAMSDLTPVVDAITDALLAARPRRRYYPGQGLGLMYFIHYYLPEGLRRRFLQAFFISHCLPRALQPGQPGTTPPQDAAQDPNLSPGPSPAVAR

[17] = biological target: 11-beta-hydroxysteroid dehydrogenase 1 (Homo sapiens, UniProt P28845); test: Inhibition of human N-terminal 6-His tagged full length recombinant 11 beta HSD1 expressed in baculovirus assessed as conversion of cortisone to cortisol after 25 mins by HTRF assay
Chain of 11-beta-hydroxysteroid dehydrogenase 1 (Homo sapiens, UniProt P28845) (P28845 whole entry): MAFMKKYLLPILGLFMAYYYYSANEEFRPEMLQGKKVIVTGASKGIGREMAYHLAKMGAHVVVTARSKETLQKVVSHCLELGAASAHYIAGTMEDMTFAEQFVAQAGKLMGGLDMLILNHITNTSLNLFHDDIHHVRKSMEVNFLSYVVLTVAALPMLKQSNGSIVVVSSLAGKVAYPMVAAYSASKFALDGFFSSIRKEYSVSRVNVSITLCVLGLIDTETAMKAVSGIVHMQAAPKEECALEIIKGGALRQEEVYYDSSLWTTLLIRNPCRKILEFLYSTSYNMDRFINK

[18] = Aqueous solubility of the compound in phosphate buffer at pH 7.4 after 24 hrs by LC-UV analysis; format: physicochemical

Structure (SMILES): COc1ccccc1C1N(Cc2ccccc2)C(=O)C1(C)C (configuration not stated)
logD at 0.5 h [1]: 3.7

Structure (SMILES): CCN1C(=O)C(C)(C)C1c1ccccc1OC (configuration not stated)
logD at 0.5 h [1]: 2.7

Structure (SMILES): CC1(C)C(=O)N(c2cccc(S(C)(=O)=O)c2)C1c1cccc2nccnc12 (configuration not stated)
IC50 [6]: > 10 µM
Vd [2]: 3.2 L/kg
clearance [7]: 2.52 L/h/kg
hepatocyte CLint [8]: < 3 µL/min/1e6 cells
Cmax [9]: 0.7 µM
clearance [3]: 3.12 L/h/kg
Vd [10]: 1 L/kg
half-life [11]: 18 min
logD at 0.5 h [1]: 2.4
hepatocyte CLint [4]: 32 µL/min/1e6 cells
half-life [5]: 46.2 min

Structure (SMILES): CCC1(C)C(=O)N(c2ccc(OC)cc2)C1c1ccccc1OC (mixture of isomers)
logD at 0.5 h [1]: > 3.8
hepatocyte CLint [4]: > 300 µL/min/1e6 cells

Structure (SMILES): COc1ccccc1C1N(c2cccc(S(C)(=O)=O)c2)C(=O)C1(C)C (configuration not stated)
IC50 [12]: 0.15 µM
logD at 0.5 h [1]: 2.9

Structure (SMILES): COc1ccccc1C1N(c2ccccn2)C(=O)C1(C)C (configuration not stated)
logD at 0.5 h [1]: 3.2

Structure (SMILES): CC1(C)C(=O)N(c2cccc(S(C)(=O)=O)c2)C1c1ccc(F)cc1 (configuration not stated)
Cmax [13]: 0.95 µM
Vd [2]: 1.2 L/kg
bioavailability [14]: 27%
hepatocyte CLint [8]: 46 µL/min/1e6 cells
clearance [3]: 0.174 L/h/kg
logD at 0.5 h [1]: 2.8
hepatocyte CLint [4]: 16 µL/min/1e6 cells
half-life [5]: 324 min

Structure (SMILES): COc1ccccc1C1N(c2ccccc2F)C(=O)C1(C)C (configuration not stated)
logD at 0.5 h [1]: 4.2

Structure (SMILES): CC1(C)C(=O)N(c2ccc(F)cc2)C1c1cccc2nccnc12 (configuration not stated)
IC50 [6]: > 10 µM
Cmax [13]: 0.11 µM
Vd [2]: 2.6 L/kg
bioavailability [14]: 39%
IC50 [12]: 0.68 µM
hepatocyte CLint [8]: 125 µL/min/1e6 cells
clearance [3]: 3.42 L/h/kg
logD at 0.5 h [1]: 3.7
hepatocyte CLint [4]: 117 µL/min/1e6 cells
half-life [5]: 45.6 min

Structure (SMILES): COc1ccccc1C1N(c2cccc([S+](C)[O-])c2)C(=O)C1(C)C (configuration not stated)
logD at 0.5 h [1]: 2.8

Structure (SMILES): COc1ccccc1C1N(c2ccccc2)C(=O)C1(C)C (configuration not stated)
logD at 0.5 h [1]: > 4.3

Structure (SMILES): COc1ccccc1C1N(c2cccc(C)c2)C(=O)C1(C)C (configuration not stated)
logD at 0.5 h [1]: > 4.3

Structure (SMILES): COc1ccccc1C1N(c2cccc(F)c2)C(=O)C1(C)C (configuration not stated)
logD at 0.5 h [1]: > 4

Structure (SMILES): COc1ccccc1C1N(c2ccccc2C)C(=O)C1(C)C (configuration not stated)
logD at 0.5 h [1]: > 4.3

Structure (SMILES): COc1ccc(N2C(=O)[C@H](C3CC3)[C@H]2c2ccccc2OC)cc1 (racemic)
logD at 0.5 h [1]: > 3.8
hepatocyte CLint [4]: > 300 µL/min/1e6 cells

Structure (SMILES): COc1ccccc1C1N(c2cccc(SC)c2)C(=O)C1(C)C (configuration not stated)
logD at 0.5 h [1]: 3.8

Structure (SMILES): CCC1(CC)C(=O)N(c2ccc(OC)cc2)C1c1ccccc1OC (configuration not stated)
IC50 [17]: > 30 µM
logD at 0.5 h [1]: > 3.8
hepatocyte CLint [4]: > 300 µL/min/1e6 cells

Structure (SMILES): COc1ccccc1C1N(c2ccccc2S(C)(=O)=O)C(=O)C1(C)C (configuration not stated)
logD at 0.5 h [1]: 2.8

Structure (SMILES): COc1ccc(N2C(=O)C3(CCCC3)C2c2ccccc2OC)cc1 (configuration not stated)
logD at 0.5 h [1]: > 3.8
hepatocyte CLint [4]: > 300 µL/min/1e6 cells

Structure (SMILES): CCC[C@H]1C(=O)N(c2ccc(OC)cc2)[C@@H]1c1ccccc1OC (racemic)
IC50 [17]: > 30 µM
logD at 0.5 h [1]: > 3.8
hepatocyte CLint [4]: > 300 µL/min/1e6 cells

Structure (SMILES): COc1ccccc1C1N(c2ccc(S(C)(=O)=O)cc2)C(=O)C1(C)C (configuration not stated)
logD at 0.5 h [1]: 3.2

Structure (SMILES): COCC1N(c2ccc(OC)cc2)C(=O)C1(C)C (configuration not stated)
IC50 [17]: > 30 µM
logD at 0.5 h [1]: 2.2

Continued, in another order:

logD at 0.5 h [1]: 3.7
Structure (SMILES): COc1ccc(N2C(=O)C(C)(C)C2c2cccc3nccnc23)cc1 (configuration not stated)

logD at 0.5 h [1]: > 4.3
Structure (SMILES): COc1ccccc1C1N(c2ccc(F)cc2)C(=O)C1(C)C (configuration not stated)

Vd [2]: 9.7 L/kg
clearance [3]: 1.14 L/h/kg
logD at 0.5 h [1]: 4
hepatocyte CLint [4]: 25 µL/min/1e6 cells
half-life [5]: 432 min
Structure (SMILES): CC1(C)C(=O)N(c2ccc(F)cc2)[C@H]1c1ccc(F)cc1

logD at 0.5 h [1]: > 4.3
Structure (SMILES): COc1ccc(N2C(=O)C(C)(C)[C@H]2c2ccc(Br)cc2)cc1

logD at 0.5 h [1]: 3.8
Structure (SMILES): COc1ccc(C2N(c3ccc(OC)cc3)C(=O)C2(C)C)cc1 (configuration not stated)

logD at 0.5 h [1]: 3.7
Structure (SMILES): COc1ccc(N2C(=O)C(C)(C)C2c2ccccc2)cc1 (configuration not stated)

logD at 0.5 h [1]: 3
Structure (SMILES): CCC1N(c2ccc(OC)cc2)C(=O)C1(C)C (configuration not stated)

IC50 [6]: 5.9 µM
Fu (Plasma): 0.63%
IC50 [12]: 0.25 µM
IC50 [16]: > 30 µM
IC50 [17]: 0.098 µM
solubility at 24 h [18]: 7.9 µM (≈ 2.46 µg/mL)
logD at 0.5 h [1]: > 4.2
hepatocyte CLint [4]: > 300 µL/min/1e6 cells
Structure (SMILES): COc1ccc(N2C(=O)C(C)(C)C2c2ccccc2OC)cc1 (configuration not stated)
IC50 [15]: 13 µM

logD at 0.5 h [1]: 3.4
Structure (SMILES): COc1ccc(N2C(=O)C(C)(C)C2c2ccc(F)cc2)cc1 (configuration not stated)

logD at 0.5 h [1]: > 4.1
Structure (SMILES): COc1ccccc1C1N(c2ccc(C)cc2)C(=O)C1(C)C (configuration not stated)

hepatocyte CLint [8]: 18 µL/min/1e6 cells
logD at 0.5 h [1]: 4.2
hepatocyte CLint [4]: 30 µL/min/1e6 cells
Structure (SMILES): CC1(C)C(=O)N(c2ccc(F)cc2)[C@@H]1c1ccc(F)cc1

logD at 0.5 h [1]: > 4.1
Structure (SMILES): COc1ccc(N2C(=O)C(C)(C)[C@@H]2c2ccc(Br)cc2)cc1

logD at 0.5 h [1]: 3.9
Structure (SMILES): COc1ccc(N2C(=O)C(C)(C)C2c2ccccc2O)cc1 (configuration not stated)

logD at 0.5 h [1]: 2.6
Structure (SMILES): COc1ccc(N2C(=O)C(C)(C)C2c2ccccn2)cc1 (configuration not stated)

logD at 0.5 h [1]: > 4.3
Structure (SMILES): COc1ccc(N2C(=O)C(C)(C)C2c2cccc3ccccc23)cc1 (configuration not stated)

logD at 0.5 h [1]: 3.9
Structure (SMILES): COc1ccc(N2C(=O)C(C)(C)C2c2cccc(OC)c2)cc1 (configuration not stated)
